Experimental data published in ChEMBL document CHEMBL1212897 (J Med Chem, 2010).
Calls of active or inactive are those of the source. The rule behind the calls is not given here.

Legend:
Progesterone receptor = target: T1, Progesterone receptor (Homo sapiens, UniProt P06401); experiment: Antagonist activity at progesterone receptor; assay type: functional
T1 sequence (P06401 whole entry): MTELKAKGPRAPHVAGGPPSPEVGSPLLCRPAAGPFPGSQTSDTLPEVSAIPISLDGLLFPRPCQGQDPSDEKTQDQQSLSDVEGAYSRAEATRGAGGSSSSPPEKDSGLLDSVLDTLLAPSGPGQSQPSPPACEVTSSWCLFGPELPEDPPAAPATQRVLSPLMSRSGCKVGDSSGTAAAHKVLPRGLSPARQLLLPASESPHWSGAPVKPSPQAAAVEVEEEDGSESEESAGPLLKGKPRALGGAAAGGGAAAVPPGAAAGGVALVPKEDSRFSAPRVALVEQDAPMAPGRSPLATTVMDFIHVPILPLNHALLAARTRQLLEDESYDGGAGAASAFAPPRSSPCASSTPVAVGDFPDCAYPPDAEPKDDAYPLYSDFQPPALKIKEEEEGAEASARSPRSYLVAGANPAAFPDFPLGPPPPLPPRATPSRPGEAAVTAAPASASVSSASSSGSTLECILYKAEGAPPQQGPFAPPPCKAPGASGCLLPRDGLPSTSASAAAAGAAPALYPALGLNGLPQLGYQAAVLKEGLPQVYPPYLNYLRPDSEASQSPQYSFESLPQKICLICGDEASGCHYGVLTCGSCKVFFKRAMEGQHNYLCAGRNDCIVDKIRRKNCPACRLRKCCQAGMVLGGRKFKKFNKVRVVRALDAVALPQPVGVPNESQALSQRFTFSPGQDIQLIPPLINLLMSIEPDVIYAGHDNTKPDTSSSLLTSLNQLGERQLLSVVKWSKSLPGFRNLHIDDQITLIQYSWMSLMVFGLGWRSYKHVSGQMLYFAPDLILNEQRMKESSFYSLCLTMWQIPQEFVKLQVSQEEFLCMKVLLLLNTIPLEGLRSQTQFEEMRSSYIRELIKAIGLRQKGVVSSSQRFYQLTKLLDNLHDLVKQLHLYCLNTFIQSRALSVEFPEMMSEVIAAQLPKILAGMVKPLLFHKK

[1] = target: T2, Mineralocorticoid receptor (Homo sapiens, UniProt P08235); assay type: functional, cell-based, Huh-7;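 also: antagonism at Gal4-fused mineralocorticoid receptor in human Huh7 cells, measured by luciferase reporter gene read-out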
T2 sequence (P08235 whole entry): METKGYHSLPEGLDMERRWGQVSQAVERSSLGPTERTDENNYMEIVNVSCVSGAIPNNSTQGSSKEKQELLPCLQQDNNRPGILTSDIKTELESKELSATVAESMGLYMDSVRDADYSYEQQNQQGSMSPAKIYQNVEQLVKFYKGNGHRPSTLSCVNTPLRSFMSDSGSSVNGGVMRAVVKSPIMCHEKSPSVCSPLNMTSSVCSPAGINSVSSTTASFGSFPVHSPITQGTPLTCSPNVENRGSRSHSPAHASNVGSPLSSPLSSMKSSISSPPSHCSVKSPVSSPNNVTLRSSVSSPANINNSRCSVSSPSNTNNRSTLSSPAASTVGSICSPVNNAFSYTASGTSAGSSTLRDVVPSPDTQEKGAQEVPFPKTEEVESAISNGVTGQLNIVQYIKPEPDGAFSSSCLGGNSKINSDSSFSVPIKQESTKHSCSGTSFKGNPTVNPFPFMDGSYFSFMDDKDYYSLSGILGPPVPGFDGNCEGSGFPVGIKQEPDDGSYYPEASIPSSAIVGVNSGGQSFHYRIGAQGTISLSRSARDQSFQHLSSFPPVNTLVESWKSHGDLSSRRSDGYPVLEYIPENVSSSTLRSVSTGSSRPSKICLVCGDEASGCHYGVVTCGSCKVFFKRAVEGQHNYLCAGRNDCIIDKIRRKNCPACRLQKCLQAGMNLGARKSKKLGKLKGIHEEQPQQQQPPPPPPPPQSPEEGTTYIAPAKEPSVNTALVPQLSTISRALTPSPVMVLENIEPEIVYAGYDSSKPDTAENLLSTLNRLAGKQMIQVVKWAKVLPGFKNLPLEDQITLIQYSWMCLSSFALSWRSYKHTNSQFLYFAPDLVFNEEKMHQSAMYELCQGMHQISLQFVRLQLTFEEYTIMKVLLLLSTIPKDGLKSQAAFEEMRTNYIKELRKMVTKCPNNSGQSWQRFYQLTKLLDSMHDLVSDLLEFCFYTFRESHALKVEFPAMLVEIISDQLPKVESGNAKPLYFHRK

[2] = Clearance in Sprague-Dawley rat at 2 mg/kg, iv; assay type: ADME, organism-based; design: dose 2 mg/kg, route intravenous; settings: in vivo
[3] = Half life in Sprague-Dawley rat at 2 mg/kg, iv; assay type: ADME, organism-based; design: dose 2 mg/kg, route intravenous; settings: in vivo
Glucocorticoid receptor = target: T3, Glucocorticoid receptor (Homo sapiens, UniProt P04150)
T3 sequence (P04150 whole entry): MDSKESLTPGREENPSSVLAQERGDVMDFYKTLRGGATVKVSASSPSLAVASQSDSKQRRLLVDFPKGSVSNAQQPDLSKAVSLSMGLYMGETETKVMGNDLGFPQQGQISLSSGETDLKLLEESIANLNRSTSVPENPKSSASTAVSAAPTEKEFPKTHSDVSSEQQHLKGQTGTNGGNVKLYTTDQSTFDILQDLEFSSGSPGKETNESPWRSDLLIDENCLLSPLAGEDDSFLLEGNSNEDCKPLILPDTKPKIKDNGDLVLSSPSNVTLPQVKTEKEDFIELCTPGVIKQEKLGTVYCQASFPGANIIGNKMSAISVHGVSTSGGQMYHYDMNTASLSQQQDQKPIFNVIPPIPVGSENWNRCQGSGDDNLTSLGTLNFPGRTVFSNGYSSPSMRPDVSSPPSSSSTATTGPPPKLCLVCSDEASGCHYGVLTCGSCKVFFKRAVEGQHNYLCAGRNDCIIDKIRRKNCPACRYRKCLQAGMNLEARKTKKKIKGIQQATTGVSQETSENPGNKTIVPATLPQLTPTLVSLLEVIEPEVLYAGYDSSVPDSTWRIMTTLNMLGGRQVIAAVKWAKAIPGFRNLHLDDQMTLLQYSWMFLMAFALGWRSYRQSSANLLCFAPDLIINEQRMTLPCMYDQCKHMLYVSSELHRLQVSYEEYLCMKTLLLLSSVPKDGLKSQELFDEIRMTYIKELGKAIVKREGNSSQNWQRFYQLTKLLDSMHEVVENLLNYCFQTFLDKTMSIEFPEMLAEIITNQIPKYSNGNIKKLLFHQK

[4] = Oral bioavailability in Sprague-Dawley rat at 2 mg/kg; assay type: ADME, organism-based; settings: in vivo
Androgen receptor = target: T4, Androgen receptor (Homo sapiens, UniProt P10275)
T4 sequence (P10275 whole entry): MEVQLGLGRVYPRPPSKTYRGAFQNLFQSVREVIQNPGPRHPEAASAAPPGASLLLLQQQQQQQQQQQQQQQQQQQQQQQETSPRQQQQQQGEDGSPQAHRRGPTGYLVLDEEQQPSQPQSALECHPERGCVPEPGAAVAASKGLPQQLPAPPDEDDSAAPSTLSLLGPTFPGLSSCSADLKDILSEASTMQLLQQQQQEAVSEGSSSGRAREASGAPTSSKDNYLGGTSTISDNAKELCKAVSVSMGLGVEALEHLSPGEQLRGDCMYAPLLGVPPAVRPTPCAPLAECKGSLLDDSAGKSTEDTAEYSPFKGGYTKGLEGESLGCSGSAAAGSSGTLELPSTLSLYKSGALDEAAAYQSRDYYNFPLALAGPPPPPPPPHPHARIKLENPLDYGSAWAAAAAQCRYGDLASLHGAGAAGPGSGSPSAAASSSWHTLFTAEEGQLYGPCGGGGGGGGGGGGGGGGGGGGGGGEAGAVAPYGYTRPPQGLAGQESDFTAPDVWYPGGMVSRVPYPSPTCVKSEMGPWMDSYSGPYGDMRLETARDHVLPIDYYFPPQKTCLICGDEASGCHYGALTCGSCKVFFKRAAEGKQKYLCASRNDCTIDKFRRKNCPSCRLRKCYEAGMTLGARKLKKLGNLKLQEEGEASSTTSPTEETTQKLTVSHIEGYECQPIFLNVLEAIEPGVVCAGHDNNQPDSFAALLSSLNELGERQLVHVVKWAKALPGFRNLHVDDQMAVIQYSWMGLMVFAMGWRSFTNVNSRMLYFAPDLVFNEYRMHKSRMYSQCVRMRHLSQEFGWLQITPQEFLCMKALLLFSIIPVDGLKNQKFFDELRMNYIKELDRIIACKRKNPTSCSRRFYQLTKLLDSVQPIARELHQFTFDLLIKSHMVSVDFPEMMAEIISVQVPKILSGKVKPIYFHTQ

[5] = Volume of distribution at steady state in Sprague-Dawley rat at 2 mg/kg, iv; assay type: ADME, organism-based; design: dose 2 mg/kg, route intravenous; settings: in vivo, read-out: Vdss
[6] = Volume of distribution at steady state in Sprague-Dawley rat at 1 mg/kg, iv; assay type: ADME, organism-based; design: dose 1 mg/kg, route intravenous; settings: in vivo, read-out: Vdss
[7] = Clearance in Sprague-Dawley rat at 1 mg/kg, iv; assay type: ADME, organism-based; design: dose 1 mg/kg, route intravenous; settings: in vivo
Estrogen receptor = target: T5, Estrogen receptor (Homo sapiens, UniProt P03372); experiment: Antagonist activity at estrogen receptor; assay type: functional
T5 sequence (P03372 whole entry): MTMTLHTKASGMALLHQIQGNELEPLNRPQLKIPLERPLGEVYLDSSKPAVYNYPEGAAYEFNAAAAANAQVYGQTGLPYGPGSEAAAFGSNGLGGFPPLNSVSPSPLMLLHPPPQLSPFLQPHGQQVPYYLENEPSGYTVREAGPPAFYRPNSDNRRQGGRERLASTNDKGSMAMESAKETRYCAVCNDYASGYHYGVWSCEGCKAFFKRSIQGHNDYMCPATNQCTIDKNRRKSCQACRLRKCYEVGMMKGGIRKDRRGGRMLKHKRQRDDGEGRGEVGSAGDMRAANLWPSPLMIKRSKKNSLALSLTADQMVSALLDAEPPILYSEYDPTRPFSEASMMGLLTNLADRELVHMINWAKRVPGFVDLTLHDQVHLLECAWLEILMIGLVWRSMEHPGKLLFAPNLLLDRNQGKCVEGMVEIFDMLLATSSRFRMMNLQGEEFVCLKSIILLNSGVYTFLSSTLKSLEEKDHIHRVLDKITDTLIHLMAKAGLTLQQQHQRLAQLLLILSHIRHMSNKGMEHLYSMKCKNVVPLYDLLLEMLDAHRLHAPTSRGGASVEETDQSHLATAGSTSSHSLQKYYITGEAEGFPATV

[8] = Oral bioavailability in Sprague-Dawley rat at 1 mg/kg; assay type: ADME, organism-based; settings: in vivo
[9] = Half life in Sprague-Dawley rat at 1 mg/kg, iv; assay type: ADME, organism-based; design: dose 1 mg/kg, route intravenous; settings: in vivo
Rattus norvegicus [10] = experiment: Effect on renal function in rat assessed as reduction in serum potassium level at 10 mg/kg, po; assay type: functional, organism-based; design: dose 10 mg/kg
Rattus norvegicus [11] = experiment: Protection against high salt-induced kidney injury in Dahl salt sensitive hypertensive rat assessed as decrease in glomerulosclerosis at 10 mg/kg, po relative to eplerenone; assay type: functional, organism-based; design: dose 10 mg/kg
Rattus norvegicus [12] = experiment: Antihypertensive activity in Dahl salt sensitive hypertensive rat assessed as reduction in systolic blood pressure at 40 to 100 mg/kg, po bid for 21 days (RVb = 10 to 50 mmHg); assay type: functional, Artery; settings: dose mg/kg 40-100
Rattus norvegicus [13] = experiment: Protection against high salt-induced kidney injury in Dahl salt sensitive hypertensive rat assessed as decrease in urinary albumin level at 40 to 100 mg/kg, po relative to eplerenone; assay type: functional; design: scale not given: the % may be the effect or the level left; settings: dose mg/kg 40-100
Rattus norvegicus [14] = experiment: Protection against high salt-induced kidney injury in Dahl salt sensitive hypertensive rat assessed as decrease in urinary albumin level at 10 mg/kg, po relative to eplerenone; assay type: functional; design: scale not given: the % may be the effect or the level left

Row | SMILES | IC50 (Progesterone receptor) [nM] | IC50 [1] [nM] | clearance [2] [mL/min/kg] | half-life [3] [min] | IC50 (Glucocorticoid receptor) [µM] | bioavailability [4] [%] | IC50 (Androgen receptor) [µM] | Vd [5] [L/kg] | Vd [6] [L/kg] | clearance [7] [mL/min/kg] | IC50 (Estrogen receptor) [µM] | bioavailability [8] [%] | half-life [9] [min] | Activity (Rattus norvegicus [10]) | Activity (Rattus norvegicus [11]) | Activity (Rattus norvegicus [12]) [mmHg] | Activity (Rattus norvegicus [13]) [%] | Activity (Rattus norvegicus [14]) [%]
1 | N#Cc1ccc(N2N=C(c3ccc(C(=O)O)cc3)C[C@@H]2c2ccc(F)cc2)cc1Cl | 2080 | 31 | 6.9 | 156 | > 10 | 46 | > 8.92 | 1.5 |  |  |  |  |  |  |  |  |  | 
2 | N#Cc1ccc(N2N=C(c3ccc(C(=O)O)cc3)C[C@@H]2C2CCCC2)cc1Cl | > 4310 | 16 | 34 | 72 | > 10 | 100 | > 10 | 3.6 |  |  |  |  |  |  |  |  |  | 
3 | CCOc1cc(C2=NN(c3ccc(C#N)c(Cl)c3)[C@@H](C3CCCC3)C2)ccc1C(=O)O |  |  | 5.5 | 78 |  | 83 |  | 0.6 | 2.3 | 9.2 | > 4.96 | 50 | 150 |  |  |  |  | 
4 | Cc1cc(N2N=C3c4ccc(C(=O)O)cc4CO[C@@H]3[C@@H]2C2CCCC2)ccc1C#N | 1880 | 26 | 4.6 | 96 | > 10 | 57 | > 10 | 0.6 |  |  |  |  |  |  |  |  |  | 
5 | N#Cc1ccc(N2N=C3c4ccc(C(=O)O)cc4CC[C@@H]3[C@@H]2C2CCCC2)cc1 (racemic) | 3180 | 89 |  |  | > 10 |  | > 10 |  |  |  |  |  |  |  |  |  |  | 
6 | N#Cc1ccc(N2N=C3c4ccc(C(=O)O)cc4CC[C@@H]3[C@@H]2C2CCCC2)cc1Cl [PF-03882845] |  |  | 9.8 | 102 |  | 86 |  | 1.4 |  |  |  |  |  | Active | Active | <5 | 50 | 18
7 | CC(=O)S[C@@H]1CC2=CC(=O)CC[C@]2(C)[C@H]2CC[C@@]3(C)[C@@H](CC[C@@]34CCC(=O)O4)[C@H]12 [SPIRONOLACTONE] |  |  |  |  | 6.92 |  |  |  |  |  | 5.7 |  |  |  |  |  |  | 
